Common to all, as to assay: inhibition of tumour cell growth, NCI panel, 48 h
For experiment [1], the system named is HT29 colon.
The subject of experiment [2] is UACC-257 melanoma.
For experiment [3], the system named is UACC-62 melanoma.
Experiment [4] concerns SN12C renal.
The test system of experiment [5] is HCT-15 colon.
Experiment [6] deals with IGROV1 ovarian.
In experiment [7] the test system is HS 578T breast.
In experiment [8] the test system is SK-OV-3 ovarian.
Experiment [9] concerns SK-MEL-2 melanoma.
Experiment [10] concerns HOP-92 NSCLC.
In experiment [11] the test system is COLO 205 colon.
In experiment [12] the test system is SK-MEL-5 melanoma.
Experiment [13] deals with A498 renal.
Experiment [14] has as its system NCI-H23 lung.
For experiment [15], the system named is OVCAR-4 ovarian.
Experiment [16] has as its system RPMI-8226 leukemia.
Experiment [17] deals with MOLT-4 leukemia.
For experiment [18], the system named is SR leukemia.

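How tested: cells in 96-well plates exposed to compound for 48 hours at five concentrations. The concentration for full growth arrest is given as TGI.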

In the case of `O=C(NC/C(Cl)=C/Cl)Nc1cccc2c1CCCC2`, the TGI in [1], in experiment [2], in experiment [3], in [4], in experiment [5] and in experiment [6] was over 100 µM in each case. Besides, the TGI in experiment [7], in [8], in experiment [9], in experiment [10], in experiment [11] and in experiment [12] was over 100 µM each time. Moreover, the TGI in experiment [13], in [14], in experiment [15], in [16], in [17] and in experiment [18] was over 100 µM in each case.

Consider `FC(F)(F)C1(C(F)(F)F)C2CCC3(CC(F)(F)C(F)(F)S3)C1C2` (stereo unspecified), for which the TGI in experiment [1] was over 100 µM; in [2], 74.3 µM; in [3] it was over 100 µM; in experiment [4], over 100 µM; in experiment [5], over 100 µM; in [6], over 100 µM. Besides, the TGI was over 100 µM in [7]; over 100 µM in experiment [8]; 49.1 µM in experiment [9]; 76.3 µM in experiment [11]; over 100 µM in experiment [12]; over 100 µM in experiment [13]. Moreover, the TGI in experiment [14] is over 100 µM; in [15], over 100 µM; in [16], 58.8 µM; in experiment [17], 46.4 µM; in [18], 44.1 µM.

For `COC(=O)CCc1ccc2c(c1)CC1(C2)Cc2ccc3c(c2C1)CCC3` (stereo unspecified), the TGI in experiment [1], in experiment [2], in experiment [3], in experiment [4], in experiment [5] and in [6] was over 100 µM in each case. Moreover, the TGI in experiment [7] is over 100 µM; in experiment [8], over 100 µM; in experiment [10], over 100 µM; in [11], over 100 µM; in experiment [12], 90.9 µM; in [13], over 100 µM. For the same molecule, the TGI in experiment [14], in experiment [15], in experiment [16], in [17] and in [18] was over 100 µM throughout.

Take `CC(=O)O/C=C\OC1CCCC1`: the TGI in [1], in experiment [2], in experiment [3], in experiment [5], in [6] and in experiment [7] was over 100 µM throughout. Moreover, the TGI in [8], in [9], in experiment [10], in [11], in [12] and in [13] was over 100 µM in each case. Further, the TGI in experiment [14], in experiment [15], in experiment [16], in experiment [17] and in [18] was over 100 µM each time.

Turning to `CCOC(=O)CC(N1CC1)N1CC1`, the TGI in experiment [1], in [2], in experiment [3], in experiment [4], in experiment [5] and in [6] was over 10 µM throughout. The TGI in [7], in experiment [8], in experiment [9], in experiment [11], in experiment [12] and in experiment [13] was over 10 µM throughout. The TGI in experiment [14], in [15], in [16], in experiment [17] and in [18] was over 10 µM throughout.

For the molecule `Cc1cc(=O)oc2c(CNC(C(=O)O)C(C)O)c(O)ccc12` (stereo unspecified), the TGI in [1], in [2], in experiment [3], in experiment [4], in experiment [5] and in [6] was over 100 µM each time. Further, the TGI in [7], in experiment [8], in [9], in experiment [10], in [11] and in experiment [12] was over 100 µM each time. Further, the TGI in [14], in [15], in [16], in experiment [17] and in experiment [18] was over 100 µM throughout.

On to `c1ccc2c3nnc(c2c1)SCCSCCCSCCS3`, for which the TGI in experiment [1], in experiment [2], in [3], in experiment [4], in [5] and in experiment [6] was over 100 µM in each case. The TGI in experiment [7] was over 100 µM; in experiment [8], 97.5 µM; in experiment [9] it was over 100 µM; in [10], 87.7 µM; in [11], over 100 µM; in [12], over 100 µM. Besides, the TGI in [13] was 92.6 µM; in experiment [14], over 100 µM; in [15], 25.8 µM.

Regarding `O=c1cc(-c2ccccc2Cl)[nH]c2cc3c(cc12)OCO3`, the TGI is 1.46 µM in [1]; over 72 µM in experiment [2]; 15.7 µM in experiment [3]; 29.1 µM in experiment [4]; 0.355 µM in [5]; over 37.5 µM in [6]. Moreover, the TGI was determined as 4.06 µM in experiment [7]; 11.4 µM in experiment [8]; 3.74 µM in [9]; 67.5 µM in experiment [10]; 0.195 µM in experiment [11]; 2.03 µM in [12]. Also, the TGI was 4.16 µM in experiment [13]; over 11 µM in experiment [14]; over 9.75 µM in experiment [15]; 0.565 µM in [16]; 2.33 µM in experiment [17]; over 100 µM in experiment [18].

For the molecule `CC1CC(NN(C)C)C2(C(N)=O)C(N)=NC(=O)C12C#N` (stereo unspecified), the TGI in experiment [1], in experiment [2], in experiment [3], in [4], in experiment [5] and in [6] was over 100 µM in each case. Besides, the TGI in [7], in [8], in experiment [9], in [10], in experiment [11] and in experiment [12] was over 100 µM in each case. Further, the TGI in [13], in experiment [14], in [16], in experiment [17] and in experiment [18] was over 100 µM throughout.

For the molecule `O=C1/C(=C\c2c(-c3ccccc3)nn(-c3ccccc3)c2O)C(c2ccccc2)=NN1c1ccccc1`, the TGI in experiment [1], in experiment [2], in [3], in experiment [4], in [5] and in experiment [6] was over 100 µM each time. Besides, the TGI in experiment [7], in experiment [8], in experiment [9], in experiment [10], in [11] and in experiment [13] was over 100 µM throughout. Besides, the TGI in experiment [14] was over 100 µM; in experiment [15] it was over 100 µM; in experiment [16], over 100 µM; in [17] it was over 100 µM; in [18] it was 61.4 µM.

For `COc1ccc2c(c1)c1c3c(ccc4ncn2c43)N(CCN(C)C)CCN=1`, the TGI in [1] amounted to 1.58 µM; in [2], 3.66 µM; in [3], 1.78 µM; in experiment [4] it was 1.26 µM; in experiment [5], 1.31 µM; in [6] it was 4.37 µM. For the same molecule, the TGI in experiment [7] worked out at 3.16 µM; in [8] it was 4.04 µM; in [9], 2.32 µM; in experiment [10] it was 4.07 µM; in [11], 1.83 µM; in [12], 2.31 µM. The TGI in [13] was found to be 2.77 µM; in experiment [14], 3.59 µM; in [15], 1.16 µM; in experiment [16] it was 2.48 µM; in experiment [17], 1.5 µM; in experiment [18], 0.209 µM.

Take `CCCCCCCCCC(=O)CC(=O)c1c(O)cc(O)cc1O`: the TGI in experiment [1] was 38.8 µM; in experiment [2], 63.4 µM; in experiment [4], 37.3 µM; in experiment [5], 43.8 µM; in experiment [6], over 75 µM; in experiment [7] it was 44.9 µM. In addition, the TGI in experiment [8] was over 75 µM; in [9], 40.9 µM; in experiment [10] it was 44.7 µM; in experiment [11], over 75 µM; in experiment [12], 28.6 µM; in [13], 71.3 µM. The TGI in experiment [14] was 35.9 µM; in [15] it was 35.8 µM; in experiment [16], 37.1 µM; in experiment [17], 32.1 µM.

For the molecule `COc1ccc(C2S/C(=C\c3cccc(O)c3)C(=O)N2NC(=O)Cc2ccccc2)cc1` (stereo unspecified), the TGI in experiment [1], in [2], in [3], in experiment [4], in experiment [5] and in experiment [6] was over 100 µM in each case. Moreover, the TGI in experiment [8], in experiment [9], in [10], in experiment [11], in [12] and in experiment [13] was over 100 µM in each case. Further, the TGI in [14], in experiment [15], in experiment [16], in experiment [17] and in experiment [18] was over 100 µM each time.

Values taken from PubChem BioAssay (NCI).
